How the values were obtained:
acyl-CoA dehydrogenases = test: In vitro acyl-CoA dehydrogenase ferrocenium assay with C. tyrobutyricum cell-free extract; format: biochemical; details: 0.5 to 10 mM compound; rate of ferrocenium reduction at 300 nm
Protocol: Lehman, et al., in An Acyl-Coenzyme A Dehydrogenase Assay Utilizing the Ferricenium Ion, Analytical Biochemistry 186, pages 280-284 (1990), disclose an in vitro assay screening technique for acyl-CoA dehydrogenases for determining enzyme deficiencies in children. An adaptation of this technique was explored as a potential screening method for ascertaining potential butyrogen inhibitors. An aqueous assay liquor is prepared such that each 1 milliliter sample contains 50 mM of TrisHCl buffer (pH 7.6); 0.05 mM of butyryl-CoA; 5 micromoles of FAD (flavin adenine dinucleotide) and 0.4 mM of ferrocenium. Whole cells of C. tyrobutyricum are lysed and are added to the assay liquor. […] The abbreviation mM stands for millimolar. To assure metabolic consistency among the samples a master batch of C. tyrobutyricum is prepared and harvested at the early log growth stage (approximate O.D. of between about 0.5 and 0.7). The master batch fermentation broth is centrifuged and rinsed with 50 mM TrisHCl buffer (pH 7.6), centrifuged and reconstituted with 50 mM TrisHCl buffer (pH 7.6) to be 10 times more concentrated than the original master batch. Aliquots of about 0.5 milliliter are placed into cryogenic vials (about 1.8 milliliter capacity) and frozen at −80° C. until needed. When needed, a vial is placed in an anoxic Coy chamber and allowed to thaw to room temperature. Once thawed, the cells are added to a 15 mL centrifuge tube and diluted with 0.5 mL of a 2 mg/mL solution of lysozyme (purchased from Aldrich) in 50 mM Tris-HCl (final concentration of lysozyme is about 1 mg/mL). The centrifuge tube is inverted 5 times, removed from the Coy chamber and allowed to incubate at 37° C. for 30 minutes. […] The centrifuge tube is vortexed in the Coy chamber for about 30 seconds, removed from the chamber and centrifuged for 15 minutes at 4000 rpm and 4° C. The tube is returned to the chamber and the cell-free extract (supernatant) is used to prepare the above described samples. The samples are analyzed at various times by absorbance spectroscopy at 300 nm using a Thermo Scientific Evolution 300 UV/Vis spectrophotometer with a 7-cuvette carousel and Starna quartz cuvettes with a septum cap to determine the amount of reduction of ferrocenium. The sample is at laboratory temperature and is maintained under anaerobic conditions. Typically, the absorbance is measured over a period of about 10 to 20 minutes which is sufficient time for the absorbance to stop changing. A linear slope of the rate of change in absorbance during the period that the absorbance is changing is determined using Microsoft Excel® 2010 linear regression to generate a straight line from the data points. The more gradual the slope, the better inhibition because the enzyme is slower at reducing the ferrocenium in the assay sample. A dose-response curve is then determined for each compound by plotting the linear slope against the respective compound concentration. A linear slope is then determined for each compound using Microsoft Excel® 2010 linear regression to generate a straight line from the data points. The steeper the dose-response slope, the better the inhibition because the increased concentration of the compound causes more of a difference in enzyme activity. The dose-response slope generally has a broad standard of deviation due to experimental imprecision and slope determinations.

C. autoethanogenum [1] = test: Toxicity to C. autoethanogenum by batch fermentation using syngas substrate, optical density; format: cell-based, Clostridium autoethanogenum; details: for O.D. Response of Various Inhibitors on C. autoethanogenum: Table 21, one value per compound; for O.D. Response to Various Inhibitors: duplicates A and B, amount not given
Protocol: In this example various crotonate-like compounds on are evaluated for toxicity to C. autoethanogenum by batch fermentation using syngas substrate. The batch fermentations are conducted by anoxically filling 100 mL serum bottles with 10 mL of media having the composition given in Tables 12 and 13. Duplicate runs are conducted for each concentration. The compounds are: • C-1 Ethyl 4,4,4-trifluoro-3-(trifluoromethyl)crotonate • C-4 4,4,4-Trifluorocrotonamide • C-9 Ethyl 4,4,4-Trifluoro-3-(amino)crotonate • C-18 3 trifluoromethyl-4-methoxybenzoate.
Each bottle is inoculated with 1.0 mL of seed culture inoculum from an active fermenter using syngas substrate and containing Clostridium autoethanogenum, which inoculum has an OD of about 4.92 (which upon a 10 times dilution provides a starting OD for the fermentation of about 0.49). The bottles are gased with syngas to about 100 kilopascals and maintained at a temperature of 37° C. The bottles are regassed with syngas every 8 to 12 hours. The syngas has the approximate composition set forth in Examples 6 to 10. Twenty four hours after inoculation of the bottles with the bacteria, the compounds are added to different bottles as a solution in 50 μL of N-methylpyrrolidone in the amounts indicated in Tables 20 and 21. The fermentation process is allowed to progress at 37° C. At selected intervals of time, bacterial growth is measured by reading the OD of the fermentation liquid using a Thermo Spectronic Genesys 20 spectrophotometer. Optical density is measured by anoxically removing an aliquot of fermentation liquid and adding it to a disposable cuvette. OD's ranging between 0.01 and 0.4 are measured using fermentation liquid directly, while OD's greater than 0.4 are measure after performing a 1/10 dilution with water.

C. autoethanogenum [2] = test: Balch tube batch growth of homoacetogen C. autoethanogenum on fructose, optical density; format: cell-based; details: added 21 h after inoculation
Protocol: These compounds were first tested to determine their effect on a known homoacetogen. Each compound was tested in a series of batch experiments to determine the growth response of a homoacetogen to the presence of the compound at varying concentrations. The batch experiments were all conducted by anoxically filling a Balch tube with 5 ml of a fermentation medium having the composition given in Tables 2 and 3. To expedite results, these batch experiments used fructose as the growth nutrient source for bacteria. Thus, the media included a 5 g/L of fructose.
Each tube was inoculated with 0.5 ml of the same strain of C. autoethanogenum bacteria seed culture inoculum. The tubes were maintained at a temperature of 37° C. Twenty one hours after the inoculation of the tube with the bacteria, the different crotonate derivatives from Table 1 were added to different tubes in the amounts indicated in Table 4 This was at a time of early to mid-log phase growth for the bacteria. Each fermentation of the bacteria in the media at the different concentration of crotonate derivatives were allowed to progress and were monitored to determine the bacteria growth at selected intervals of time varying from approximately 20 hours to 190 hours. Growth at the intervals was measured by reading the optical density (OD) of the fermentation liquid. Optical density was measured using a Spectronic Spec 20 (Thermo Spectronic) at a wavelength of 600 nm. The OD of the Balch tube culture was measured directly in the tube using absorbance mode on the Spec 20 machine. The machine was set to zero absorbance by first measuring and adjusting the setting to zero absorbance using media only as a blank. This process was repeated at each indicated time point throughout the experiment. The ability of a tube fermentation at a particular concentration of crotonate derivative to reach a predetermined optical density was recorded in Table 4. Table 4 indicates the presence of bacterial growth to an OD of approximately 2 or above with a “+”, and to an optical density in a range of 0.5 to 1.5 as a “+/−”, and indicates the failure of bacterial growth to reach an optical density of approximately 0.5 as a “−”.

[3] = tested on: Clostridium tyrobutyricum; test: Balch tube batch growth of strict butyrogen Clostridium tyrobutyricum on fructose, optical density; format: cell-based; details: added 21 h after inoculation
Protocol: Similar experiments were conducted to make a preliminary determination as to which of the crotonate and crotonate-like compounds would act as butyrogen retardants. For this purpose the selected compounds were tested again in a series of batch experiments to determine the growth response of butyrogens to the presence of the compound at varying concentrations. The batch experiments were all conducted by anoxically filling a 20 ml Balch tube with 5 ml of a fermentation medium having the composition given in Tables 2 and 3. The media included 0.5 v/v final concentration of a fructose substrate. For each of the crotonate concentrations tested, duplicate test tubes were prepared.
Each tube was inoculated with 0.5 ml seed culture inoculum of the strict butyrogen Clostridium tyrobutyricum. The tubes were maintained at a temperature of 37° C. Twenty one hours after the inoculation of the tube with the bacteria, the different compounds from Table 1 were added to different tubes in the amounts indicated in Table 6. This was at a time of early to mid-log phase growth for the bacteria. Each fermentation of the bacteria in the media at the different concentration of crotonate derivatives were allowed to progress and were monitored to determine the bacteria growth at selected intervals of time varying from approximately 20 hours to 54 hours. Growth at the intervals was measured by reading the optical density (OD) of the fermentation liquid. Optical density was measured as described in Example 1. The ability of a tube fermentation at a particular concentration of crotonate derivative to reach a predetermined optical density was recorded in Table 6. Table 6 indicates the presence of bacterial growth to an OD of approximately 1.8 or above with a “+”, and to an optical density in a range of 0.7 to 1.5 as a “+/−”, and indicates the failure of bacterial growth to reach an optical density of approximately 0.7 as a “−”.

[4] = 0 Hours, added 24 h after inoculation
[5] = 2.5 Hours, added 24 h after inoculation
[6] = 6.5 Hours, added 24 h after inoculation
[7] = 24.5 Hours, added 24 h after inoculation

O=C(O)c1cccc(C(F)(F)F)c1 [3-(Trifluoromethyl)benzoate]
Dose-Response Slope (acyl-CoA dehydrogenases): 6

3 trifluoromethyl-4-methoxybenzoate [Compound C-18]
O.D. Response of Various Inhibitors on C. autoethanogenum (C. autoethanogenum [1]; [4]): 0.49 | O.D. Response of Various Inhibitors on C. autoethanogenum (C. autoethanogenum [1]; [5]): 0.44 | O.D. Response of Various Inhibitors on C. autoethanogenum (C. autoethanogenum [1]; [6]): 0.44 | O.D. Response of Various Inhibitors on C. autoethanogenum (C. autoethanogenum [1]; [7]): 1.16 | O.D. Response of Various Inhibitors on C. autoethanogenum (C. autoethanogenum [1]; 30.5 Hours): 1.30 | O.D. Response of Various Inhibitors on C. autoethanogenum (C. autoethanogenum [1]; 47.5 Hours): 1.74 | O.D. Response of Various Inhibitors on C. autoethanogenum (C. autoethanogenum [1]; 56 Hours): 1.88 | O.D. Response to Various Inhibitors (C. autoethanogenum [1]; [4]): 0.49 | O.D. Response to Various Inhibitors (C. autoethanogenum [1]; [5]): 0.47 | O.D. Response to Various Inhibitors (C. autoethanogenum [1]; 2.5 Hours, added 24 h after inoculation, listed as C-19): 0.41 | O.D. Response to Various Inhibitors (C. autoethanogenum [1]; [6]): 0.44 | O.D. Response to Various Inhibitors (C. autoethanogenum [1]; [7]): 1.15 | O.D. Response to Various Inhibitors (C. autoethanogenum [1]; 24.5 Hours, added 24 h after inoculation, listed as C-19): 1.18 | O.D. Response to Various Inhibitors (C. autoethanogenum [1]; 30.5 Hours, added 24 h after inoculation): 1.32 | O.D. Response to Various Inhibitors (C. autoethanogenum [1]; 30.5 Hours, added 24 h after inoculation, listed as C-19): 1.28 | O.D. Response to Various Inhibitors (C. autoethanogenum [1]; 47.5 Hours, added 24 h after inoculation): 1.73 | O.D. Response to Various Inhibitors (C. autoethanogenum [1]; 47.5 Hours, added 24 h after inoculation, listed as C-19): 1.75

CCOC(=O)/C=C(/C)N [H, ethyl 3-aminocrotonate]
Optical density valuation of C. autoethanogenum (C. autoethanogenum [2]; 10 ppm(m)): + (bacterial growth to an OD of approximately 2 or above) | Optical density valuation of C. autoethanogenum (C. autoethanogenum [2]; 100 ppm(m)): + (bacterial growth to an OD of approximately 2 or above) | Optical density valuation of C. autoethanogenum (C. autoethanogenum [2]; 500 ppm(m)): + (bacterial growth to an OD of approximately 2 or above) | Optical density valuation of C. autoethanogenum (C. autoethanogenum [2]; 1000 ppm(m)): + (bacterial growth to an OD of approximately 2 or above) | Optical density valuation of C. autoethanogenum (C. autoethanogenum [2]; 5000 ppm(m)): + (bacterial growth to an OD of approximately 2 or above) | Optical density valuation of C. autoethanogenum (C. autoethanogenum [2]; 10000 ppm(m)): + (bacterial growth to an OD of approximately 2 or above)

O=C(O)/C=C/C(F)(F)F [G, 4,4,4-trifluorocrotonic acid]
Optical density valuation of C. autoethanogenum (C. autoethanogenum [2]; 10 ppm(m)): + (bacterial growth to an OD of approximately 2 or above) | Optical density valuation of C. autoethanogenum (C. autoethanogenum [2]; 100 ppm(m)): + (bacterial growth to an OD of approximately 2 or above) | Optical density valuation of C. autoethanogenum (C. autoethanogenum [2]; 500 ppm(m)): + (bacterial growth to an OD of approximately 2 or above) | Optical density valuation of C. autoethanogenum (C. autoethanogenum [2]; 1000 ppm(m)): +/− (to an optical density in a range of 0.5 to 1.5) | Optical density valuation of C. autoethanogenum (C. autoethanogenum [2]; 5000 ppm(m)): − (failure of bacterial growth to reach an optical density of approximately 0.5) | Optical density valuation of C. autoethanogenum (C. autoethanogenum [2]; 10000 ppm(m)): − (failure of bacterial growth to reach an optical density of approximately 0.5) | Optical density valuation of C. tyrobutyricum ([3]; 100 ppm(m)): + (bacterial growth to an OD of approximately 1.8 or above) | Optical density valuation of C. tyrobutyricum ([3]; 500 ppm(m)): + (bacterial growth to an OD of approximately 1.8 or above) | Optical density valuation of C. tyrobutyricum ([3]; 1000 ppm(m)): + (bacterial growth to an OD of approximately 1.8 or above)

COc1ccc(C(N)=O)cc1C(F)(F)F [3-Trifluoromethyl-4-methoxybenzamide]
Dose-Response Slope (acyl-CoA dehydrogenases): 12

NC(=O)c1ccc(F)c(C(F)(F)F)c1 [3-Trifluoromethyl-4-fluorobenzamide]
Dose-Response Slope (acyl-CoA dehydrogenases): 5

CCOC(=O)c1ccccc1C(F)(F)F [Ethyl 2-(trifluoromethyl)benzoate]
Dose-Response Slope (acyl-CoA dehydrogenases): 8

From patent publication US20130071897A1, “METHOD FOR CONTROLLING UNDESIRABLE BYPRODUCTS FORMATION CAUSED BY CONTAMINATING ORGANISMS IN THE PRODUCTION OF ETHANOL FROM SYNGAS” (COSKATA, INC., priority 2011, published 2013)
